Values quoted from earlier work, collected in PMC3816732, “Database-Guided Discovery of Potent Peptides to Combat HIV-1 or Superbugs” (Pharmaceuticals, 2013).
“Also recorded” adds a separate entry of the source. Like-named read-outs stand apart in the source and are kept apart here. Bridges are numbered along the chain shown (N, C = ends). Where no end group is shown, it is not given here.

Columns and labels:
E. coli K12 = system: E. coli K12; set-up: method as in 5 sources, ref [9] = [9]; PMID 18957441; doi:10.1093/nar/gkn823; 9. Wang G. Li X. Wang Z. The updated antimicrobial peptide database and its application in peptide design Nucleic Acids Res. 2009 37 D933 D937 10.1093/nar/gkn823 18957441 PMC2686604 ||| ref [52] = [52]; PMID 20086159; doi:10.1128/AAC.01448-09; 52. Wang G. Watson K.M. Peterkofsky A. Buckheit R.W. Jr. Identification of novel human immunodeficiency virus type 1 inhibitory peptides based on the antimicrobial peptide database Antimicrob. Agents ||| ref [54] = [54]; doi:10.4172/2155-6113.S2-003; 54. Wang G. Buckheit K.W. Mishra B. Lushnikova T. Buckheit R.W. Jr. De Novo Design of Antiviral and Antibacterial Peptides with Varying Loop structures J. AIDS Clin. Res. 2011 S2:003 10.4172/2155-6113 ||| ref 9, 52, 54 = [9]; PMID 18957441; doi:10.1093/nar/gkn823; 9. Wang G. Li X. Wang Z. The updated antimicrobial peptide database and its application in peptide design Nucleic Acids Res. 2009 37 D933 D937 10.1093/nar/gkn823 18957441 PMC2686604 || [52]; PMID 20086159; doi:10.1128/AAC.01448-09; 52. Wang G. Watson K.M. Peterkofsky A. Buckheit R.W. Jr. Identification of novel human immunodeficiency virus type 1 inhibitory peptides based on the antimicrobial peptide database Antimicrob. Agents || [54]; doi:10.4172/2155-6113.S2-003; 54. Wang G. Buckheit K.W. Mishra B. Lushnikova T. Buckheit R.W. Jr. De Novo Design of Antiviral and Antibacterial Peptides with Varying Loop structures J. AIDS Clin. Res. 2011 S2:003 10.4172/2155-6113 ||| ref 9, 54 = [9]; PMID 18957441; doi:10.1093/nar/gkn823; 9. Wang G. Li X. Wang Z. The updated antimicrobial peptide database and its application in peptide design Nucleic Acids Res. 2009 37 D933 D937 10.1093/nar/gkn823 18957441 PMC2686604 || [54]; doi:10.4172/2155-6113.S2-003; 54. Wang G. Buckheit K.W. Mishra B. Lushnikova T. Buckheit R.W. Jr. De Novo Design of Antiviral and Antibacterial Peptides with Varying Loop structures J. AIDS Clin. Res. 2011 S2:003 10.4172/2155-6113; conditions: for MIC: peptide potency against E. coli K12
Description: Our initial attempt was a stepwise design based on the bioinformatics results from our database.

HIV-1 = system: HIV-1
Description: For example, proline-rich AMPs are known to interact with bacterial heat shock proteins.

Escherichia coli = conditions: database-screened peptides
Description: The spread of MRSA from the clinical setting to the communities is worrisome. In fact, the annual frequency of deaths from MRSA is rapidly increasing and has surpassed those caused by HIV/AIDS. Therefore, there is a need to develop new treatments to control MRSA. To identify new compounds against MRSA USA300 LAC, we also assayed the antibacterial activity of the same 30 peptides used for screening anti-HIV-1 peptides above. […] We referred to this unique method as ab initio design to distinguish it from the de novo methods above. Our design comprises two major modules. The first module consists of an activity filter that allows us to obtain a list of peptides with desired activity (e.g., antibacterial, antifungal, antiviral, antiparasitic, or anticancer). To obtain compounds to kill S. aureus, we retrieved all AMPs with activity against Gram-positive bacteria as model peptides. The second module is composed of a series of parameter filters ... || As a second example, we also aimed to identify the minimal active region in a longer peptide. Human cathelicidin LL-37 is a 37-residue peptide starting with a pair of leucines. Our studies produced a library of model peptides with distinct antimicrobial activity. KR-12 is identified as the minimal antibacterial peptide corresponding to residues 18–29 of human LL-37. It is active against E. coli but not HIV-1 [56, 71]. However, FK-13, a core antimicrobial peptide with one more phenylalanine at the N-terminus than KR-12 [72], is active against both HIV-1 and E. coli.

Pseudomonas aeruginosa = conditions: database-screened peptides
Description: [The procedure below names another organism; the source lists this organism under the same test.] (§1) The spread of MRSA from the clinical setting to the communities is worrisome. In fact, the annual frequency of deaths from MRSA is rapidly increasing and has surpassed those caused by HIV/AIDS. Therefore, there is a need to develop new treatments to control MRSA. To identify new compounds against MRSA USA300 LAC, we also assayed the antibacterial activity of the same 30 peptides used for screening anti-HIV-1 peptides above. […] We referred to this unique method as ab initio design to distinguish it from the de novo methods above. Our design comprises two major modules. The first module consists of an activity filter that allows us to obtain a list of peptides with desired activity (e.g., antibacterial, antifungal, antiviral, antiparasitic, or anticancer). To obtain compounds to kill S. aureus, we retrieved all AMPs with activity against Gram-positive bacteria as model peptides. The second module is composed of a series of parameter filters ...

Bacillus subtilis = conditions: database-screened peptides
Description: [The procedure below names another organism; the source lists this organism under the same test.] as §1

[1] = system: Staphylococcus aureus USA300 LAC; set-up: method as in 2 sources, ref 52, 53 = [52]; PMID 20086159; doi:10.1128/AAC.01448-09; 52. Wang G. Watson K.M. Peterkofsky A. Buckheit R.W. Jr. Identification of novel human immunodeficiency virus type 1 inhibitory peptides based on the antimicrobial peptide database Antimicrob. Agents || [53]; PMID 22445495; doi:10.1016/j.ijantimicag.2012.02.003; 53. Menousek J. Mishra B. Hanke M.L. Heim C.E. Kielian T. Wang G. Database screening and in vivo efficacy of antimicrobial peptides against methicillin-resistant Staphylococcus aureus USA300 Int. J. A ||| ref 55 = [55]; PMID 22803960; doi:10.1021/ja305644e; 55. Mishra B. Wang G. Ab initio design of potent anti-MRSA peptides based on database filtering technology J. Am. Chem. Soc. 2012 134 12426 12429 10.1021/ja305644e 22803960 PMC3412535; conditions: for S. aureus USA300 (MIC, μM): S. aureus USA300 LAC (MRSA), database screening; for activity against S. aureus USA300 (MRSA), in words: database-screened peptides
Description: In fact, the annual frequency of deaths from MRSA is rapidly increasing and has surpassed those caused by HIV/AIDS. Therefore, there is a need to develop new treatments to control MRSA. To identify new compounds against MRSA USA300 LAC, we also assayed the antibacterial activity of the same 30 peptides used for screening anti-HIV-1 peptides above. […] For example, proline-rich AMPs are known to interact with bacterial heat shock proteins.

[2] = system: herpes simplex virus type-2 (HSV-2); set-up: method as in doi:10.4172/2155-6113.S2-003
Description: These GLRC peptides (Table 3) are made of only amino acids G, L, R, and C. […] O ...

Staphylococcal biofilm = conditions: catheter embedded in mice
[3] = peptide potency against HIV-1, database-guided designed peptides

Substance | MIC (E. coli K12) [µM] | EC50 (HIV-1; [3]) [µM] | activity against E. coli, in words (Escherichia coli) | activity against P. aeruginosa, in words (Pseudomonas aeruginosa) | activity against B. subtilis, in words (Bacillus subtilis) | S. aureus USA300 (MIC, μM) [1] [µM] | activity against S. aureus USA300 (MRSA), in words [1] | further results
GCRRLCGRLGRRLCRLLCR (also: bicyclic or more (positions not given here)) [GLRC-4] | 60 | 30.7 | – | – | – | – | – | Stability (% left) (chymotrypsin; stability to the action of chymotrypsin): 9.7 % left
Maculatin 1.3 | – | – | not | not | active | 6.2 | active | –
drosocin [reference compound] | – | – | – | – | – | – | – | activity against HIV-1, in words (HIV-1): did not show any activity
GLRCRLGRLLRRLGRCLLR (disulfide 4-16 (inferred)) [GLRC-2] | 30 | 0.79 | – | – | – | – | – | Stability (% left) (chymotrypsin): 63.3 % left; stability to the action of chymotrypsin, in words (chymotrypsin): most stable; inhibitory effect on HSV-2 [2]: inhibitory effect; activity against HIV-1, in words (HIV-1; GLK/GLR/GLRC designed peptides): most effective
FFGKVLKLIRKIF-NH2 [DASamP1] | – | – | not | not | not | 3.1 | active; also recorded: effective | prevention of Staphylococcal biofilm formation (Staphylococcal biofilm): able to prevent Staphylococcal biofilm formation; activity against HIV-1, in words (HIV-1): effective; EC50 (HIV-1; read-out: HIV-1 (EC50)): 0.63 µM
Piscidin 1 | – | – | active | active | active | 3.1 | effective | activity against S. aureus USA300 (MRSA), in words ([1]; listed as piscidin 1): active
GLKKLLGKLLKKLGKLLLK [GLK-19] | 10 | > 47.5 | – | – | – | – | – | activity against HIV-1, in words (HIV-1; GLK/GLR/GLRC designed peptides): not
Lycotoxin I: spider antimicrobial peptide (IWLTALKFLGKHAAKHLAKQQLSKL; UniProt P61507 1-25, looked up) | – | – | active | active | active | 3.1 | active | –
GLRRLLGRLLRRLGRLLLR [GLR-19] | >120 | 4.4 | – | – | – | – | – | Stability (% left) (chymotrypsin): 14.5 % left; activity against E. coli, in words (E. coli K12; GLK/GLR designed peptides): lost activity; activity against HIV-1, in words (HIV-1; GLK/GLR/GLRC designed peptides): HIV-1 inhibitory
Ascaphin-8 | – | – | active | active | active | 3.1 | effective | activity against HIV-1, in words (HIV-1): effective; EC50 (HIV-1; read-out: HIV-1 (EC50)): 1.2 µM; activity against S. aureus USA300 (MRSA), in words ([1]; listed as Aascaphin-8): active
GLRRLCGRLGRRLCRLLLR (disulfide 6-14 (inferred)) [GLRC-3] | 7.5 | 2.8 | – | – | – | – | – | Stability (% left) (chymotrypsin): 1.4 % left
IKWKKLLRAAKRIL-NH2 [DASamP2, derivative of polybia-MPI, […]-amide] | – | – | active | active | active | 6.2 | active | –
GCRRLLGRLLRRLGRLLCR (disulfide 2-18 (inferred)) [GLRC-1] | 30 | > 43.8 | – | – | – | – | – | Stability (% left) (chymotrypsin): 20.8 % left
Ponericin L2 [reference compound] | – | – | – | – | – | – | – | EC50 (HIV-1; read-out: HIV-1 (EC50), database screening of 30 APD peptides): 1.4 µM
